Test results reported in PMC11189516, “Structure-guided conversion from an anaplastic lymphoma kinase inhibitor into Plasmodium lysyl-tRNA synthetase selective inhibitors” (Communications Biology, 2024).
In brackets after ≈: the same amount, converted by molar mass. Several values for one entry are separate records, joined by “and”; a condition that tells them apart may be missing. Equal values may be shown once. Read-outs that look alike come from different tables or passages of the source. One block for each compound: values may come before it.

Columns and labels:
[1] = tested on: erythrocytic-stage P. falciparum 3D7 parasites; set-up: method as in PMID 33053158; conditions: read-out: EC50, growth of erythrocytic-stage P. falciparum 3D7; cited from earlier work
PfLysRS [2] = target: T1, PfLysRS (Plasmodium falciparum, UniProt Q8IDJ8); conditions: cited from earlier work
T1 construct: PfLysRS (77–583) was constructed in the vector pET20b, with a C-terminal 6×His tag; 6xHis (C); made in house; host or cells: E. coli BL21 (DE3)

PfLysRS [3] = target: T1, PfLysRS; assay: ATP hydrolysis assay (Kinase-Glo) on PfLysRS; format: biochemical; conditions: for IC50: read-out: IC50 against PfLysRS
Procedure: (§1) The ATP hydrolysis assays were based on Kinase-Glo luminescent Kit (Promega). The experiment was carried out in Corning 384-well white flat bottom microplates. The buffer in the reaction contains 25 mM Hepes pH 7.4, 140 mM NaCl, 40 mM MgCl2, 30 mM KCl, 1 mM TCEP, 0.1 mg·mL^−1 BSA, and 0.004% Tween-20. The compounds were diluted to different concentrations with a 5-fold gradient.
(§2) For LysRS assays, DMSO was added into negative control wells and L-lysine was removed in positive control wells. 100 nM LysRS in 2.5 μL Hepes buffer was mixed with compounds and incubated for 10 min. Then 5 μL substrate mixture (2 μM ATP, 10 μM L-lysine and 31 nM pyrophosphatase) was added to start the reaction at 37 °C and incubated for 6 h.
(§3) When the reaction reaches the planned time, 10 μL diluted Kinase-Glo reagent (1/50 diluted with a buffer containing 50 mM Tris pH 7.5 and 5% glycerol) was added and incubated for 15 min. Luminescence was measured on the Magellan plate reader (Tecan) and nonlinear regression was performed with Prism (GraphPad).

ALK = target: T2, ALK (Homo sapiens, UniProt Q9UM73); assay: ATP hydrolysis assay (Kinase-Glo) on ALK; format: biochemical; conditions: read-out: IC50 against ALK
T2 construct: The plasmid pCDNA3.1_8×His-tev-ALK (kinase domain, 1068–1410) was constructed; 8xHis (N); TEV site (N); made in house; host or cells: Expi293 cells (transient transfection)
Procedure: as §1
For ALK assays, DMSO was added into negative control wells. 100 nM ALK in 2.5 μL Hepes buffer was mixed with compounds and incubated for 10 min. Then 5 μL substrate (2 μM ATP) was added to start the reaction at 37 °C and incubated for 6 h.
as §3

HsLysRS = target: T3, HsLysRS (Homo sapiens, UniProt Q15046); assay: ATP hydrolysis assay (Kinase-Glo) on HsLysRS; format: biochemical
T3 construct: HsLysRS (70–581) was constructed in the vector pET20b with a C-terminal 6×His tag; 6xHis (C); made in house; host or cells: E. coli (pET20b; 'purified similarly' to PfLysRS, which was expressed in BL21 (DE3))
Procedure: as §1, §2, §3

PfLysRS [4] = target: T1, PfLysRS; assay: Surface plasmon resonance (SPR) assay; format: binding; conditions: immobilized PfLysRS
Procedure: PfLysRS was chemically immobilized on a Biacore CM5 sensorchip (immobilization level ~20000 resonance unit/RU) at pH 5.0 according to the immobilization kit (GE Healthcare). PfLysRS (1.7 nM) was captured for 90 s at a flow of 30 µL·min^−1. Affnity between PfLysRS and compounds was measured by SPR on a Biacore 8 K (GE Healthcare) at 25 °C with a running buffer (0.02 M phosphate buffer pH 7.4, 2.7 mM KCl, 0.137 M NaCl, 0.05% Tween 20, with 1 mM L-lysine). The association time was 90 s, the dissociation time was 120 s, and the flowrate was 30 µL·min^−1. Kinetic evaluation of the interaction between LysRS and compounds was performed by global fitting of the data to a 1:1 interaction model using Biacore Evaluation Software 3.1 (GE Healthcare).

PfLysRS [5] = target: T1, PfLysRS; assay: Thermal shift assay; format: binding
Procedure: PfLysRS protein was prepared at 10 μM concentration in a buffer containing 20 mM Tris pH 8.0, 200 mM NaCl, 500 μM L-lysine, and 200 μM Compound. Aliquots (18 µL) were added to a 96-well PCR plate and incubated at ambient temperature for 10 min. SYPRO Orange dye (Sigma) was diluted in the assay buffer containing 20 mM Tris pH 8.0 and 200 mM NaCl to a 40× concentration, and 2 µL of the 40× dye solution was added to the PCR plate to bring the final assay volume to 20 µL. After complete mixing, the final solutions were heated from 25 to 90 °C at a rate of 0.015 °C per sec, and fluorescence signals were monitored by QuantStudio 3 (Applied Biosystems by Thermo Fisher Scientific).

[6] = Solubility noted in the cytotoxicity assay; format: physicochemical; conditions: highest concentration limited to 100 μM in cell medium
Procedure: Cell viability was analyzed by Cell Counting Kit-8 (CCK8, ApexBio) according to the manufacturer’s protocols. Cells were seeded and cultured at a density of 2.5 × 10^3 cells per well in 100 μL medium in 96-well microplates (Corning). Then, the cells were treated with different concentrations of compound (0, 1 μM, 3 μM, 10 μM, 100 μM, 300 μM). […] After treatment for 72 h, 10 μL of CCK-8 reagent was added to each well and then cultured for 4 h. All experiments were performed in pentaplicate. The absorbance was analyzed at 450 nm using a microplate reader (Tecan) using medium without cells as blanks. Data was processed using GraphPad Prism 9.

P. falciparum ProRS = conditions: sentence of the first manuscript quoted in the peer review file; read-out: dissociation constant (KD); cited from earlier work
Staphylococcus aureus = tested on: Staphylococcus aureus; set-up: method as in PMID 6258580, PMID 659331, PMID 3923922; conditions: cited from earlier work
[7] = +Lysine, sheet Figure 6B, in °C (unit assumed)

T1 sequence (Q8IDJ8 entry or part of it): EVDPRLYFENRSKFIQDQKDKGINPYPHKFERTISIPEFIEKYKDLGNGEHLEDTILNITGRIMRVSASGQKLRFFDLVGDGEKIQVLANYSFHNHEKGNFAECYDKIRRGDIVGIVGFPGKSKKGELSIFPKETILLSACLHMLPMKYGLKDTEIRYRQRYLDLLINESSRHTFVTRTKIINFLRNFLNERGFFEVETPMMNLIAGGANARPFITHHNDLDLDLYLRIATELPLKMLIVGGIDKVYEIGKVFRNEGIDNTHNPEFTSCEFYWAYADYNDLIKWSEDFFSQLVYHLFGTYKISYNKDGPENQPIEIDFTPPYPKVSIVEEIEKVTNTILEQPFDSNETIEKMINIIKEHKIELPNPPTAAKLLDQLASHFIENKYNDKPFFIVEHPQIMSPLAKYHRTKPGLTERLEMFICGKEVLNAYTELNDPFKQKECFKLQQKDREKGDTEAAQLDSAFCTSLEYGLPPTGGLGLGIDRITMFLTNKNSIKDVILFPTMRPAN
T3 sequence (Q15046 70-581): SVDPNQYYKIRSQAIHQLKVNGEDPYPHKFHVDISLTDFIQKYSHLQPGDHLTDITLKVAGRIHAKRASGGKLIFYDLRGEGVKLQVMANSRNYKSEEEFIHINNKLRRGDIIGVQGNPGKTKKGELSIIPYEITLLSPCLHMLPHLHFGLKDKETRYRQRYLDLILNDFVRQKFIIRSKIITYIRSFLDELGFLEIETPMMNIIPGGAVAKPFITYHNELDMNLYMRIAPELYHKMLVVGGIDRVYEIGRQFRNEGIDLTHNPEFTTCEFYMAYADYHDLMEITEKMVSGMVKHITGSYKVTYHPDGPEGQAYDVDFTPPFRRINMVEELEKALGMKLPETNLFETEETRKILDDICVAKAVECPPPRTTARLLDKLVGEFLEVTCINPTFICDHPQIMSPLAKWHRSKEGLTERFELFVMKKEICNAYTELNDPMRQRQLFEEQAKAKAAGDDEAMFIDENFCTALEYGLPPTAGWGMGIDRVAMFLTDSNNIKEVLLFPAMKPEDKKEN
T2 sequence (Q9UM73 1068-1410): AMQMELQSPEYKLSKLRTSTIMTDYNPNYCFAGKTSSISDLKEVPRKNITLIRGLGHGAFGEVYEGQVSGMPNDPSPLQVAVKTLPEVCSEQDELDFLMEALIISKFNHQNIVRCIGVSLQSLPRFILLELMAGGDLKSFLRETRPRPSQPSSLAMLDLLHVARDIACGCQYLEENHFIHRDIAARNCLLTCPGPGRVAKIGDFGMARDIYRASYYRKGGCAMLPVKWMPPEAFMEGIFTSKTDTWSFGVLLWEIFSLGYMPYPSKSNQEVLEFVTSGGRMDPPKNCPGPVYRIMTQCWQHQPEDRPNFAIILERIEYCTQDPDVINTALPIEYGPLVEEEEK

SMILES: COc1cc(N2CCC(N3CCN(C)CC3)CC2)ccc1Nc1ncnc(Nc2ccccc2S(=O)(=O)C(C)C)n1 [ASP3026, N-{2-Methoxy-4-[4-(4-methylpiperazin-1-yl)piperidin-1-yl]phenyl}-N’-[2-(propane-2-sulfonyl)phenyl]-1,3,5-triazine-2,4-diamine]
EC50 [1]: 5.61 µM
IC50 (PfLysRS [2]; another kit, different buffer system, ref nucleic acid research paper, read-out: previously reported IC50 against PfLysRS): 657 ± 195 nM
inhibitory effect on human ALK stronger than on PfLysRS (PfLysRS [2]; ref original Nucleic Acid Research paper): about 200 times
IC50 (PfLysRS [3]): 967 ± 170 nM

IC50 (ALK): > 74.4 µM
apparent selectivity index for HsLysRS (HsLysRS; PfLysRS vs HsLysRS): 200
IC50 (HsLysRS; read-out: IC50 against HsLysRS): 12 µM
koff (PfLysRS [4]): 0.0113 s⁻¹
kon (PfLysRS [4]): 911000 M/s
Kd (PfLysRS [4]; 1 mM L-lysine in running buffer, read-out: dissociation constant (KD)): 12.4 nM
△Tm of PfLysRS (PfLysRS [5]; +Lysine, sheet Figure 6B): 12.798
Tm of PfLysRS, Average (PfLysRS [5]; [7]): 57.818
Tm of PfLysRS, single repeat (PfLysRS [5]; [7]): 57.710 and 57.895 and 57.833
ΔTm at 200 µM (PfLysRS [5]; in the presence of L-lysine): 12.8 °C
HillSlope (best-fit value) (PfLysRS [3]; PfLysRS): 1.065
LogIC50 (best-fit value) (PfLysRS [3]; PfLysRS, log of nM): 1.772
IC50 (PfLysRS [3]): 59.2 nM
SMILES: COc1ccc(OC)c(Nc2ncnc(Nc3ccccc3S(=O)(=O)CCCNC(=O)[C@@H](N)CCCCN)n2)c1 [Compound 36K3]
solubility [6]: poor solubility

SMILES: O=C(CC1NCCCC1O)Cn1cnc2cc(Br)c(Cl)cc2c1=O (centres unmarked) [Halofuginone]
Kd (P. falciparum ProRS): 19 nM

SMILES: C/C(=C\C(=O)OCCCCCCCCC(=O)O)C[C@@H]1OC[C@H](C[C@@H]2O[C@H]2[C@@H](C)[C@H](C)O)[C@@H](O)[C@H]1O [Mupirocin]
MIC (Staphylococcus aureus): 0.05 µg/mL (≈ 0.0999 µM)
